# Data published in patent US6447797B2, “Antibacterial phosphoinositides” (Abbott Laboratories, priority 1998, dated 2002).
# “And” between values parts separate entries of the source, which are not always exact repeats. Identical values can stand only once. “Also recorded” adds a separate entry of the source. Marks after values point to notes of the source that are not given here.
# Assays:
# [1] = test system: Haemophilus influenzae nontypeable bacterium strain adhering to Detroit 562 human pharynx carcinoma cells (DT 562); assay: Inhibition of adhesion of 111-In radiolabeled Haemophilus influenzae to DT 562 human pharynx cells; assay type: cell-based; settings: for Activity in adhesion bioassay (in words): adhesion of H. influenzae to human pharynx cells
# Description: To determine the ability of various phosphoinositides to prevent the adhesion of Haemophilus influenzae to human nasopharynx cells, the following procedure was used. Detroit 562 human pharynx carcinoma cells (DT 562) were obtained from the American Culture Type Collection. A Haemophilus influenzae nontypeable bacterium strain, which was isolated from the middle ear of an infected child, was obtained from Dr. Lauren Bakaletz of The Ohio State University in Columbus, Ohio.
# The DT 562 cells were seeded into Costar 96 well plates at a density of 20,000 to 25,000 cells per well and were cultured in Dulbeco's modified Eagle Medium, available from Grand Island Biological Company. The cells were supplemented with 10% fetal bovine serum (FBS), available from Hyclone. The plates were incubated in a humidified atmosphere of 95% air and 5% carbon dioxide at 37° C. Plates containing cells were washed three times with 20 μL of Hanks Balanced Saline Solution (HBSS), available from Sigma Chemical Company of St. Louis, Mo., to remove serum proteins before the addition of bacteria in adhesion assays.
# Haemophilus influenzae was streaked onto Chocolate agar plates, available from Becto Dickinson Diagnostic Instrument System of Sparks, Maryland, from frozen aliquots of a low passage number. The plates were then incubated at 37° C. in a humidified atmosphere of 95% air and 5% carbon dioxide for 18 hours to obtain logarithmically growing cultures. Bacteria harvested in phosphate buffered solution (PBS) supplemented with 0.05% bovine serum albumin (BSA), available from Miles Inc. of Kankakee, Ill., were centrifuged and resuspended in a volume of PBS/BSA yielding an optical density of 2.4 at a wavelength of 660 nm. ^111-Indium-oxine (^111-In), a high-energy, short-lived tracer was utilized to radiolabel the bacteria. Fifty μCi of ^111-In solution was added to 2.5 mL of the bacterial suspension and incubated for 20 minutes at 37° C. The radiolabeled bacteria were then washed two times with 10 mL HBSS to remove unbound ^111-In and resuspended in 5 mL HBSS supplemented with 30 mM 2-hydroxyethylpiperazine-N′-2-ethane sulfonic acid buffer, available from Life Technologies, a producer of Gibco BRL Products, of Grand Island, N.Y. Twenty-five μL of the ^111-In labeled bacterial suspension was preincubated with 25 μL of the test chemical in a polypropylene 96 well plate, available from Costar, for 15 minutes at 37° C. to allow binding of the test agent to the Haemophilus influenzae bacterium.
# To determine the adhesion quantitation, the following procedure was used. Twenty-five μL of the preincubation mixture containing radiolabeled bacteria and the test chemical were pipetted into each well of the assay plate containing DT 562 cells. The assay plate was incubated for about 15 to about 20 minutes at 37° C. to allow adhesion of the bacteria to the cell monolayer. Nonadherent bacteria were removed by washing the plate three times in HBSS. The assay was terminated by the addition of 100 μL of 0.05 N sodium hydroxide to disrupt the cell monolayer and the adhering of the Haemophilus influenzae bacterium. The contents of each well were then placed in Cobra polypropylene tubes and counted on a Cobra Gamma Counter, available from Packard Bell. After background radiation was subtracted from each well, the average count of four replicates (per sample) was calculated. Results are presented in Table 1 as the percent of inhibition of bacterial adhesion, as compared to bacterial attachment, in control wells containing no test chemical and in which the percent of inhibition is zero.
# [2] = test system: nontypeable Haemophilus influenzae; assay: Neonatal rat model of nasopharyngeal colonisation by nontypeable Haemophilus influenzae; assay type: in vivo; settings: for H.I. Recovered Log10 (CFU/mL): intranasal, nasal wash 24 hours after administration, 10 rat pups per group
# Method: The attachment of Haemophilus influenzae to a mammal's nasopharynx area is believed to be the first stage of a bacterial infection which can lead to otitis media and other disorders and diseases caused by Haemophilus influenzae. A neonatal rat model was used to test the in vivo activity of phosphoinositides, and more specifically PI-3,4-PP, against nontypeable Haemophilus influenzae .
# In the test, overnight cultures of nontypeable Haemophilus influenzae were prepared, washed twice and diluted with HBSS to obtain a bacterial suspension of less than 100,000 colony forming units (CFU) per mL. Sample solutions of the PI-3,4-PP were prepared by dissolving in HBSS at 2 mg/mL. The sample solution was mixed with an equal volume (0.5 mL) of the diluted bacterial suspension and incubated for one hour at 37° C. A bacterial control was prepared by mixing and incubating 0.5 mL HBSS with an equal volume of the diluted bacterial suspension. A solvent blank was prepared by incubating 1 mL of HBSS under the same conditions.
# In the test, the experimental and control mixtures were used to inoculate 24-hour-old or younger rat pups at 10 μL each intranasally. Twenty-four hours after administration, samples of nasopharyngeal fluid were obtained by the slow instillation of 25 μL of HBSS into the left naris and the initial 10 μL discharge from the right naris was collected for plate count. This procedure insured that the fluid had passed through the nasopharynx. The nasal wash was then spread, or diluted and then spread, onto chocolate agar plates. The plates were incubated at 37° C. overnight and counted for the number of CFU's, an indicator of the number of viable bacteria.
# [3] = Test Level 0.1 mg/mL, vs control wells without test chemical, average of four replicates
Compound,"% Inhibition of bacterial adhesion [1, 3]",Activity in adhesion bioassay (in words) [1],also measured
"1-D-myo-inositol-1,2,6-triphosphate sodium salt [I-1,2,6-PPP, reference compound]",6* %,inactive,–
"1-D-myo-inositol-1,3,4-triphosphate sodium salt [I-1,3,4-PPP, reference compound]",−1%,inactive,–
"O=P([O-])(OCC(O)CO)OC1C(O)C(O)C(O)C(O)C1O.[Li+] [GPI, 1-(a-glycerophosphopoyl)-D-myo-insoitol lithium salt, reference compound]",–,inactive,% Inhibition of bacterial adhesion ([1]; Test Level 0.5 mg/mL): −3%
"L-a-phosphatidylinositol ammonium salt [PI, reference compound]",−2%,inactive,–
L-a-phosphatidylinositol-4-monophosphate sodium salt [PI-4-P],24%,lower level of activity,–
"dipalmitoylphosphatidylinositol-3,4-diphosphate ammonium salt [PI-3,4-PP]",–,especially active,"H.I. Recovered Log10 (CFU/mL) ([2]; Trial 1, inoculum dose 53 CFU/pup, 1 mg/mL PI-3,4-PP): 1.34 ± 0.58 Log10 (CFU/mL); Reduction in the number of bacteria recovered vs untreated group (HI+HBSS) ([2]; Trial 2, 1 mg/mL PI-3,4-PP, inoculum dose 630-720 CFU/pup): 0.6 log; H.I. Recovered Log10 (CFU/mL) ([2]; Trial 2, inoculum dose 630 CFU/pup, 1 mg/mL PI-3,4-PP): 2.54 ± 1.08 Log10 (CFU/mL); Mode of in vivo activity (in words) ([2]; neonatal rats, nasopharynx, ammonium salt): not bactericidal; also recorded: inhibits the attachment of nontypeable Haemophilus influenzae to nasopharyngeal cells of neonatal rats; % Inhibition of bacterial adhesion ([1]; Test Level 0.006 mg/mL): 31%; % Inhibition of bacterial adhesion ([1]; Test Level 0.013 mg/mL): 33%; % Inhibition of bacterial adhesion ([1]; Test Level 0.025 mg/mL): 58%; % Inhibition of bacterial adhesion ([1]; Test Level 0.050 mg/mL, ammonium salt): 80%; % Inhibition of bacterial adhesion ([1]; Test Level 0.050 mg/mL, listed as PI-3,4-P, ammonium salt): about 80%; % Inhibition of bacterial adhesion ([1]; Test Level 0.1 mg/mL, vs control wells without test chemical, average of four replicates, ammonium salt): 74% and 81%; Lowest concentration at which activity was exhibited ([1]; adhesion inhibition, dose response): 0.006 mg/mL"
dipalmitoylphosphatidylinositol-3-phosphate ammonium salt [PI-3-P],24%,lower level of activity,–
